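Five concentrations, 48 hours, 96-well plates. Abbreviation: GI50, concentration required for 50% inhibition of growth. TGI denotes the concentration required for complete inhibition of growth.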
How the values were obtained:
Experiment in all cases: DTP human tumour cell line panel, 48 h
[1] = tested on: DU-145 prostate
[2] = tested on: LOX IMVI melanoma
[3] = tested on: HL-60(TB) leukemia
[4] = tested on: IGROV1 ovarian
[5] = tested on: SK-MEL-28 melanoma
[6] = tested on: A498 renal
[7] = tested on: SK-MEL-2 melanoma
[8] = tested on: RPMI-8226 leukemia
[9] = tested on: HCT-116 colon
[10] = tested on: CCRF-CEM leukemia
[11] = tested on: A549 NSCLC
[12] = tested on: KM12 colon
[13] = tested on: SNB-19 CNS
[14] = tested on: HS 578T breast
[15] = tested on: MOLT-4 leukemia
[16] = tested on: SNB-75 CNS
[17] = tested on: COLO 205 colon
[18] = tested on: U251 CNS
[19] = tested on: SF-539 CNS
[20] = tested on: HOP-92 NSCLC
[21] = tested on: BT-549 breast
[22] = tested on: HCT-15 colon
[23] = tested on: UACC-62 melanoma
[24] = tested on: SF-268 CNS
[25] = tested on: MDA-MB-435
[26] = tested on: SN12C renal
[27] = tested on: SF-295 CNS
[28] = tested on: SR leukemia
[29] = tested on: SK-OV-3 ovarian

Molecule `O=C(CN1CCOCC1)NNc1ncnc2ccccc12` has a TGI [1] of 32.3 µM, a GI50 [2] of 1.31 µM and a TGI [2] of 11.2 µM. For the same molecule, the GI50 [3] was 5.17 µM, the TGI [3] was 26.2 µM and the GI50 [4] was 17 µM. The TGI [4] was 36.3 µM, the GI50 [5] was 12.2 µM and the TGI [5] was 24.5 µM. It also gave a GI50 [6] greater than 100 µM, a TGI [6] greater than 100 µM and a GI50 [7] of 15.6 µM. For the same molecule, the TGI [7] was 30.5 µM, the GI50 [8] was 16.9 µM and the TGI [8] was 46.6 µM. It also gave a GI50 [9] of 3.14 µM, a TGI [9] of 12.3 µM and a GI50 [10] of 3.34 µM. For the same molecule, the TGI [10] was 71 µM, the GI50 [11] was 17.4 µM and the TGI [11] was 34.7 µM. It also gave a GI50 [12] of 18.7 µM, a TGI [12] of 41.4 µM and a GI50 [13] of 16.2 µM. It also gave a TGI [13] of 30.7 µM, a GI50 [14] of 20.6 µM and a TGI [14] of 64.6 µM. It also gave a GI50 [15] of 15.6 µM, a TGI [15] of 56.9 µM and a GI50 [16] of 16 µM. For the same molecule, the TGI [16] was 30 µM, the GI50 [17] was 2.42 µM and the TGI [17] was 5.37 µM. The GI50 [18] was 13.9 µM, the TGI [18] was 27.5 µM and the GI50 [19] was 13.2 µM. The TGI [19] was 26 µM, the GI50 [20] was 13.3 µM and the TGI [20] was 27.1 µM. It also gave a GI50 [21] of 13.8 µM, a TGI [21] of 28 µM and a GI50 [22] of 11.9 µM. It also gave a TGI [22] of 26.4 µM, a GI50 [23] of 13.7 µM and a TGI [23] of 27.2 µM. For the same molecule, the GI50 [24] was 3.95 µM, the TGI [24] was 18.5 µM and the GI50 [25] was 13.7 µM. The TGI [25] was 27 µM, the GI50 [26] was 14.9 µM and the TGI [26] was 28.6 µM. For the same molecule, the GI50 [27] was 19.5 µM, the TGI [27] was 34.4 µM and the GI50 [28] was 15.7 µM. The TGI [28] was 54.7 µM, the GI50 [29] was 16.3 µM and the TGI [29] was 30.1 µM.

Reference: PubChem BioAssay (NCI)
